Laboratory results: ChEMBL document CHEMBL4651402, “Screening of ~5500 FDA-approved drugs and clinical candidates for anti-SARS-CoV-2 activity” (2021)
pIC50: −log10 of the molar value.

System: SARS-CoV-2
Test: microbe, parasite or virus in culture
Settings: Severe acute respiratory syndrome coronavirus 2, Vero C1008, 48 h; for IC50: read-out: pIC50 (converted)

Structure (SMILES)	pIC50	IC50 [µM]
C[C@]12CC[C@H]3[C@@H](CC[C@@]45O[C@@H]4C(O)=C(C#N)C[C@]35C)[C@@H]1CC[C@@H]2O [TRILOSTANE]	< 4.70	> 20
COc1cc2c(N)nc(N3CCN(C(=O)OCC(C)(C)O)CC3)nc2c(OC)c1OC [TRIMAZOSIN]	< 4.70	> 20
CCC(COC(=O)c1cc(OC)c(OC)c(OC)c1)(c1ccccc1)N(C)C (stereo not given) [TRIMEBUTINE]	< 4.70	> 20
CCN(CC)CC(=O)Nc1c(C)cc(C)cc1C [TRIMECAINE]	< 4.70	> 20
COc1ccc(CN2CCNCC2)c(OC)c1OC [TRIMETAZIDINE]	< 4.70	> 20
CN1C(=O)OC(C)(C)C1=O [TRIMETHADIONE]	< 4.70	> 20
COc1cc(C(=O)NCc2ccc(OCCN(C)C)cc2)cc(OC)c1OC [TRIMETHOBENZAMIDE]	< 4.70	> 20
COc1cc(Cc2cnc(N)nc2N)cc(OC)c1OC [TRIMETHOPRIM]	< 4.70	> 20
CC(CC(c1ccccc1)c1ccccc1)N(C)C (stereo not given) [TRIMETHYLDIPHENYLPROPYLAMINE]	< 4.70	> 20
COc1cc(C(=O)N2CCOCC2)cc(OC)c1OC [TRIMETOZINE]	< 4.70	> 20
COc1cc(NCc2ccc3nc(N)nc(N)c3c2C)cc(OC)c1OC [TRIMETREXATE]	< 4.70	> 20
CC(CN(C)C)CN1c2ccccc2CCc2ccccc21 (stereo not given) [TRIMIPRAMINE]	< 4.70	> 20
Cc1cc2cc3c(C)cc(=O)oc3c(C)c2o1 [TRIOXSALEN]	< 4.70	> 20
CN(C)CCN(Cc1ccccc1)c1ccccn1 [TRIPELENNAMINE]	< 4.70	> 20
Cc1ccc(/C(=C\CN2CCCC2)c2ccccn2)cc1 [TRIPROLIDINE]	< 4.70	> 20
COc1cc(C(=S)N2CCOCC2)cc(OC)c1OC [TRITIOZINE]	< 4.70	> 20
O=c1[nH]c(=O)n(Cl)c(=O)n1Cl [TROCLOSENE]	< 4.70	> 20
Cc1c(C)c2c(c(C)c1O)CCC(C)(COc1ccc(CC3SC(=O)NC3=O)cc1)O2 (stereo not given) [TROGLITAZONE]	< 4.70	> 20
Cc1c(C)c2c(c(C)c1O)CCC(C)(C(=O)O)O2 (stereo not given) [TROLOX]	< 4.70	> 20
NC(CO)(CO)CO [TROMETHAMINE]	< 4.70	> 20
CCN(Cc1ccncc1)C(=O)C(CO)c1ccccc1 (stereo not given) [TROPICAMIDE]	< 4.70	> 20
CN1[C@@H]2CC[C@H]1C[C@@H](OC(=O)c1c[nH]c3ccccc13)C2 [TROPISETRON]	< 4.70	> 20
N[C@@H]1[C@H]2CN(c3nc4c(cc3F)c(=O)c(C(=O)O)cn4-c3ccc(F)cc3F)C[C@@H]12 [TROVAFLOXACIN]	< 4.70	> 20
COc1cc(C(=O)NC2CCCNC2)cc(OC)c1OC (stereo not given) [TROXIPIDE]	< 4.70	> 20

Structure (SMILES)	pIC50	IC50 [µM]
NCCc1c[nH]c2ccccc12 [TRYPTAMINE]	< 4.70	> 20
N[C@@H](Cc1c[nH]c2ccccc12)C(=O)O [TRYPTOPHAN]	< 4.70	> 20
Nc1ncnc2c1ccn2[C@@H]1O[C@H](CO)[C@@H](O)[C@H]1O [TUBERCIDIN]	< 4.70	> 20
CC(C)(C)NCC(O)c1ccccc1Cl (stereo not given) [TULOBUTEROL]	< 4.70	> 20
CCCCNC(=O)OCC(C)(CCC)COC(N)=O (stereo not given) [TYBAMATE]	< 4.70	> 20
NCCc1ccc(O)cc1 [TYRAMINE]	< 4.70	> 20
CC(C)C[C@H](NC(=O)[C@@H](O)[C@H](N)Cc1ccccc1)C(=O)O [UBENIMEX]	< 4.70	> 20
COC1=C(OC)C(=O)C(C/C=C(\C)CC/C=C(\C)CC/C=C(\C)CC/C=C(\C)CC/C=C(\C)CC/C=C(\C)CC/C=C(\C)CC/C=C(\C)CC/C=C(\C)CCC=C(C)C)=C(C)C1=O [UBIDECARENONE]	< 4.70	> 20
CC(C)=CCOc1cc(NC(=S)c2ccoc2C)ccc1Cl [UC 781]	< 4.70	> 20
CC[C@@H]1CN(C(=O)NCC(F)(F)F)C[C@@H]1c1cnc2cnc3[nH]ccc3n12 [UPADACITINIB]	< 4.70	> 20
O=c1cc[nH]c(=O)[nH]1 [URACIL]	< 4.70	> 20
NC(N)=O [UREA]	< 4.70	> 20
COc1ccc(C(=O)CC(=O)O)c2c1C=CC(C)(C)O2 [URSINOIC ACID]	< 4.70	> 20
C[C@H](CCC(=O)O)[C@H]1CC[C@H]2[C@@H]3[C@@H](O)C[C@@H]4C[C@H](O)CC[C@]4(C)[C@H]3CC[C@]12C [URSODIOL]	< 4.70	> 20
COC(=O)[C@H](c1ccccc1)N1CCC(c2ccc(NC(=O)c3ccccc3-c3ccc(C(F)(F)F)cc3)cc2)CC1 [USISTAPIDE]	< 4.70	> 20
Cc1cccc(-c2[nH]c(CNc3ccccc3F)nc2-c2ccc3ncnn3c2)n1 [VACTOSERTIB]	< 4.70	> 20
Cc1ccc2c(=O)c3cccc(CC(=O)O)c3oc2c1C [VADIMEZAN]	< 4.70	> 20
CC(C)[C@H](N)C(=O)OCCOCn1cnc2c(=O)nc(N)[nH]c21 [VALACYCLOVIR]	< 4.70	> 20
Cc1onc(-c2ccccc2)c1-c1ccc(S(N)(=O)=O)cc1 [VALDECOXIB]	< 4.70	> 20
CC(C)[C@H](N)C(=O)OCC(CO)OCn1cnc2c(=O)[nH]c(N)nc21 (stereo not given in full) [VALGANCICLOVIR]	< 4.70	> 20
CCC(C)C(CC)C(N)=O (stereo not given) [VALNOCTAMIDE]	< 4.70	> 20
CC(C)[C@H](N)C(=O)O[C@@H]1[C@@H](CO)O[C@@H](n2ccc(N)nc2=O)[C@]1(C)O [VALOPICITABINE]	< 4.70	> 20
CCCC(CCC)C(=O)O [VALPROIC ACID]	< 4.70	> 20
CCCC(CCC)C(N)=O [VALPROMIDE]	< 4.70	> 20

Structure (SMILES)	pIC50	IC50 [µM]
C/C=C/C[C@@H](C)C(=O)[C@H]1C(=O)N[C@@H](C(C)C)C(=O)N(C)CC(=O)N(C)[C@@H](CC(C)C)C(=O)N[C@@H](C(C)C)C(=O)N(C)[C@@H](CC(C)C)C(=O)N[C@@H](C)C(=O)N[C@H](C)C(=O)N(C)[C@@H](CC(C)C)C(=O)N(C)[C@@H](CC(C)C)C(=O)N(C)[C@@H](C(C)C)C(=O)N1C [VALSPODAR]	< 4.70	> 20
CC(C)[C@H](N)C(=O)O[C@@H]1C[C@@H](n2ccc(N)nc2=O)O[C@H]1CO [VALTORCITABINE]	< 4.70	> 20
CN[C@H](CC(C)C)C(=O)N[C@H]1C(=O)N[C@@H](CC(N)=O)C(=O)N[C@H]2C(=O)N[C@H]3C(=O)N[C@H](C(=O)N[C@H](C(=O)O)c4cc(O)cc(O)c4-c4cc3ccc4O)[C@H](O)c3ccc(c(Cl)c3)Oc3cc2cc(c3O[C@@H]2O[C@H](CO)[C@@H](O)[C@H](O)[C@H]2O[C@H]2C[C@](C)(N)[C@H](O)[C@H](C)O2)Oc2ccc(cc2Cl)[C@H]1O [VANCOMYCIN]	< 4.70	> 20
COc1cc2/c(=N/c3ccc(Br)cc3F)nc[nH]c2cc1OCC1CCN(C)CC1 [VANDETANIB]	< 4.70	> 20
Fc1ccc(C(OCCN2CCN(CCCc3ccccc3)CC2)c2ccc(F)cc2)cc1 [VANOXERINE]	< 4.70	> 20
NC(=O)c1cnc2n1CCc1ccccc1C21CCNCC1 [VAPITADINE]	< 4.70	> 20
c1cnc2cc3c(cc2n1)[C@@H]1CNC[C@H]3C1 [VARENICLINE]	< 4.70	> 20
C[C@@H]1COC(Nc2ccc3ncnc(Nc4ccc(OCc5nccs5)c(Cl)c4)c3c2)=N1 [VARLITINIB]	< 4.70	> 20
Clc1ccc(Nc2nnc(Cc3ccncc3)c3ccccc23)cc1 [VATALANIB]	< 4.70	> 20
CC(=O)O[C@H]1C[C@@H]2CC[C@@H]3[C@H](CC[C@@]4(C)[C@H]3C[C@H]([N+]3(C)CCCCC3)[C@@H]4OC(C)=O)[C@@]2(C)C[C@@H]1N1CCCCC1 [VECURONIUM]	< 4.70	> 20
C[C@]1(c2nc3c(C(N)=O)cccc3[nH]2)CCCN1 [VELIPARIB]	< 4.70	> 20
Nc1c2c(nc3ccccc13)CCCC2O (stereo not given) [VELNACRINE]	< 4.70	> 20
CCCS(=O)(=O)Nc1ccc(F)c(C(=O)c2c[nH]c3ncc(-c4ccc(Cl)cc4)cc23)c1F [VEMURAFENIB]	< 4.70	> 20
COc1ccc(C(CN(C)C)C2(O)CCCCC2)cc1 (stereo not given) [VENLAFAXINE]	< 4.70	> 20
COc1cc2c(cc1OC)C(C)N(CCc1ccc(N)cc1)CC2 (stereo not given) [VERADOLINE]	< 4.70	> 20
CC(C)(C)c1ccc(S(=O)(=O)Nc2ccc(Cl)cc2C(=O)c2cc[n+]([O-])cc2)cc1 [VERCIRNON]	< 4.70	> 20
COc1ccc(N(C)c2nc(C)nc3ccccc23)cc1 [VERUBULIN]	< 4.70	> 20
CCCCOc1nc(N)c2c(n1)N(Cc1cccc(CN3CCCC3)c1)CC(=O)N2 [VESATOLIMOD]	< 4.70	> 20
COC[C@@H](c1ccc(C(F)(F)F)cc1)N1CCN(C2(C)CCN(C(=O)c3c(C)ncnc3C)CC2)C[C@@H]1C [VICRIVIROC]	< 4.70	> 20
COc1cccc(-c2ccc(NC(=O)C3=C(C(=O)O)CCC3)c(F)c2)c1 [VIDOFLUDIMUS]	< 4.70	> 20
CC(C)(C)NC(=O)c1ccc(Oc2cc(F)c(CC(=O)O)cc2Cl)c(NS(=O)(=O)c2ccc(C3CC3)cc2Cl)c1 [VIDUPIPRANT]	< 4.70	> 20
C=CC(N)CCC(=O)O (stereo not given) [VIGABATRIN]	< 4.70	> 20
